The values that follow come from patent US10968236B2, “TYK2 inhibitors and uses thereof” (Nimbus Lakshmi, Inc., priority 2015, dated 2021).

For assay [1], the target named is TYK2 (Homo sapiens (Human), UniProt P29597). Briefly: Tyk2 activity inhibition assay (radioactive kinase / Caliper assay). It counts as biochemical. On the procedure: (§1) Peptide substrate, [KKSRGDYMTMQIG], (20 μM) is prepared in reaction buffer (20 mM Hepes pH 7.5, 10 mM MgCl2, 1 mM EGTA, 0.02% Brij35, 0.02 mg/mL BSA, 0.1 mM […], 2 mM DTT, 1% DMSO. TYK2 (Invitrogen) kinase is added, followed by compounds in DMSO. 33PATP is added to initiate the reaction in ATP at 10 μM. Kinase reaction is incubated for 120 min at room temp and reactions are spotted onto P81 ion exchange paper (Whatman #3698-915), and then washed extensively in 0.75% phosphoric acid, prior to reading the radioactivity counts. For JAK2 (Invitrogen) kinase assay the peptide substrate poly[Glu:Tyr] (4:1), 0.2 mg/ml is used, in the reaction carried out the same as for TYK2.
TYK2, sequence (P29597 whole entry): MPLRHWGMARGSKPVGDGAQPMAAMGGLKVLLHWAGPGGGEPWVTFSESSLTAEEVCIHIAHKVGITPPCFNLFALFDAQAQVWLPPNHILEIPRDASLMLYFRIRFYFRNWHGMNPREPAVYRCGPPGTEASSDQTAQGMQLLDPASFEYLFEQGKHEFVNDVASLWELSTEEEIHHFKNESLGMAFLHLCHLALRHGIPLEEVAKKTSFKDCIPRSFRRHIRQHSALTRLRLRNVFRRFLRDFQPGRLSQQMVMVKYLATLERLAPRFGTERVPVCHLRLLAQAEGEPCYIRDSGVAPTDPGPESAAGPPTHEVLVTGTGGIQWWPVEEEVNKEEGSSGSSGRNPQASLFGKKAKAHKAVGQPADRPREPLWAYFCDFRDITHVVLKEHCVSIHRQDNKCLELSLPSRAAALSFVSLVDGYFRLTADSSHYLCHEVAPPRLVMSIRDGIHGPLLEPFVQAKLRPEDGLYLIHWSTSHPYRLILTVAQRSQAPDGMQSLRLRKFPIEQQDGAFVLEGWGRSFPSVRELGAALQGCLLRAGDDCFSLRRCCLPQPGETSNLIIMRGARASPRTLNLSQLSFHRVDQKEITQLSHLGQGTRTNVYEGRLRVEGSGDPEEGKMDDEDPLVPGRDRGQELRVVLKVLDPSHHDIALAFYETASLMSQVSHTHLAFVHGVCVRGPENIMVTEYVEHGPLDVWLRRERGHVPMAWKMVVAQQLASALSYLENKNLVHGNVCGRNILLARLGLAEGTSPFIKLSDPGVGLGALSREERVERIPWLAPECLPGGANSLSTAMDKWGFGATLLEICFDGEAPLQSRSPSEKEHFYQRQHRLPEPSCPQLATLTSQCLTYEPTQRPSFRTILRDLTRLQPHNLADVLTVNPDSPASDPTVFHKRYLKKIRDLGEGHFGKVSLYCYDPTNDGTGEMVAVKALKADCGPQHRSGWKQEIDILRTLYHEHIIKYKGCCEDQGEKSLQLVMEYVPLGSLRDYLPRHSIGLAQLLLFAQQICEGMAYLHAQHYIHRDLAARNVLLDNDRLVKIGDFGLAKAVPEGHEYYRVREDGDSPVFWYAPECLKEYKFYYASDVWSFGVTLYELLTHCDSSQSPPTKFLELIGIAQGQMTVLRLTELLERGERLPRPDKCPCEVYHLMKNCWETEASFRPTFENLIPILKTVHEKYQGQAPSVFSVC
(§2) The caliper machine employs an off chip mobility shift assay to detect phosphorylated peptide substrates from kinase assays, using microfluidics technology. The assays are carried out at ATP concentration equivalent to the ATP Km, and at 1 mM ATP. Compounds are serially diluted in DMSO then further diluted in assay buffer (25 mM HEPES, pH 7.5, 0.01% Brij-35, 0.01% Triton, 0.5 mM EGTA). 5 ul of diluted compound was added into wells first, then 10 ul of enzyme mix was added into wells, followed by 10 uL of substrate mix (peptide and ATP in 10 mM MgCl2) to start reaction. Reaction was incubated at 28° C. for 25 min and then added 25 ul stop buffer (100 mM HEPES, 0.015% Brij-35, 50 mM EDTA), followed by reading with Caliper. JAK2 at 1 nM final concentration and TYK2 at 9.75 nM are from Carna, and substrates used are ATP at 20 and 16 uM, respectively. JAK2 assay uses peptide 22 and TYK2 uses peptide 30 (Caliper), each at 3 uM.
(§3) The compound numbers correspond to the compound numbers in Table 1. Compounds having an activity designated as “A” provided an Ki≤0.01 μM; compounds having an activity designated as “B” provided an Ki of 0.01-0.1 μM; compounds having an activity designated as “C” provided an Ki of 0.1-1.0 μM; and compounds having an activity designated as “D” provided an Ki≥1.0 μM.

Assay [2] deals with JAK2 (Homo sapiens (Human), UniProt O60674). Briefly: JAK2 activity inhibition assay (radioactive kinase / Caliper assay). It counts as biochemical. The protocol: as §1, §2, §3
JAK2, sequence (O60674 whole entry): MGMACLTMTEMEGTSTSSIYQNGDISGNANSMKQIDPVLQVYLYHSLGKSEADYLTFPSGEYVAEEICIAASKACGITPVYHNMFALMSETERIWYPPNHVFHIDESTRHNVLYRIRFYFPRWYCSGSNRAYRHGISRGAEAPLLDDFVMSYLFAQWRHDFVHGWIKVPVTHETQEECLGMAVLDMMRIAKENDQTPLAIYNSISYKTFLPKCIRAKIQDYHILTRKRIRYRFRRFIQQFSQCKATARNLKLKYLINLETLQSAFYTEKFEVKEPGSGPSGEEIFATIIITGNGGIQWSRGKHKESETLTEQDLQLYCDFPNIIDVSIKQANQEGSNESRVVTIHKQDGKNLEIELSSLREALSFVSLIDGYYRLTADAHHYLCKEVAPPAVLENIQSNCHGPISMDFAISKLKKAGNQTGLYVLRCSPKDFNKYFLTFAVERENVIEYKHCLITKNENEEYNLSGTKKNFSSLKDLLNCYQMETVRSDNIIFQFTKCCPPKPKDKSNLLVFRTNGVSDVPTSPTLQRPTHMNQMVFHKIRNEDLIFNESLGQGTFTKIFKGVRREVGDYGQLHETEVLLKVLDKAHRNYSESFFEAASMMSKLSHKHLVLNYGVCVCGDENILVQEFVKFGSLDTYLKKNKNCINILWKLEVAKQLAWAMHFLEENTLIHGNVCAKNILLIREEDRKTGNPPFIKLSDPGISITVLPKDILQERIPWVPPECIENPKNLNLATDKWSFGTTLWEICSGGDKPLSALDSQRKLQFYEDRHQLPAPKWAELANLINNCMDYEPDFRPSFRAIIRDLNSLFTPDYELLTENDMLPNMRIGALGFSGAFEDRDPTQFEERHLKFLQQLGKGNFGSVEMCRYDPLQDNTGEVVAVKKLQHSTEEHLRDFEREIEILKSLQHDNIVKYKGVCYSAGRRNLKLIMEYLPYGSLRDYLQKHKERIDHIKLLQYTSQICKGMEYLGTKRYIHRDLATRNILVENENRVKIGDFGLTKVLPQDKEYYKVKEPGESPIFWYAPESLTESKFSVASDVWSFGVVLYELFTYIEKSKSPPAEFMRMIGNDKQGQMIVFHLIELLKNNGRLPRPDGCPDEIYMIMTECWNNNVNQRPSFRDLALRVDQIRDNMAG

As for `Nc1ccc2ccn(-c3cc(-c4c(F)cccc4F)nc4c3C(=O)NC4)c2n1` [Compound I-19, 4-(6-amino-1H-pyrrolo[2,3-b]pyridin-1-yl)-2-(2,6-difluorophenyl)-6,7-dihydro-5H-pyrrolo[3,4-b]pyridin-5-one], the results for the Ki in assay [1] and in assay [2] were 10 to 100 nM and no less than 1000 nM, respectively.
The corresponding values for `CC(O)(C(=O)O)c1ccc(Nc2nc(-c3c(F)cccc3F)nc3c2C(=O)NC3)cc1` (stereo not shown) [Compound I-6, 2-(4-((2-(2,6-difluorophenyl)-5-oxo-6,7-dihydro-5H-pyrrolo-[3,4-d]pyrimidin-4-yl)amino)phenyl)-2-hydroxypropanoic acid] are no more than 10 nM and 100 to 1000 nM.
The corresponding values for `CCNC(=O)[C@](C)(O)c1ccc(Nc2nc(-c3c(F)cccc3F)nc3c2C(=O)NC3)cc1` [Compound I-16, (R)-2-(4-((2-(2,6-difluorophenyl)-5-oxo-6,7-dihydro-5H-pyrrolo[3,4-d]pyrimidin-4-yl)amino)phenyl)-N-ethyl-2-hydroxypropanamide] are no more than 10 nM and 100 to 1000 nM.
The corresponding values for `CCNC(=O)C(O)(CC(F)(F)F)c1ccc(Nc2nc(-c3c(F)cccc3F)nc3c2C(=O)NC3)cc1` (stereo not shown) [Compound I-26, 2-(4-((2-(2,6-difluorophenyl)-5-oxo-6,7-dihydro-5H-pyrrolo[3,4-d]pyrimidin-4-yl)amino)phenyl)-N-ethyl-4,4,4-trifluoro-2-hydroxybutanamide] are no more than 10 nM and 100 to 1000 nM.
For `O=C1NCc2nc(-n3c(F)cccc3=O)cc(Nc3ccc(N4CCOCC4)cn3)c21` [Compound I-56, 2-(6-fluoro-2-oxopyridin-1(2H)-yl)-4-((5-morpholinopyridin-2-yl)amino)-6,7-dihydro-5H-pyrrolo[3,4-b]pyridin-5-one], the values for the Ki in assay [1] and in assay [2] were 10 to 100 nM and 100 to 1000 nM, respectively.
The corresponding values for `O=C1NCc2nc(-c3c(F)cccc3F)cc(Nc3ccc(C(=O)N4CCC5(CC4)CC5)cc3)c21` [Compound I-57, 4-((4-(6-azaspiro[2.5]octane-6-carbonyl)phenyl)amino)-2-(2,6-difluorophenyl)-6,7-dihydro-5H-pyrrolo[3,4-b]pyridin-5-one] are no more than 10 nM and 10 to 100 nM.
The corresponding values for `CC1(C)COc2cc(Nc3cc(-c4c(F)cccc4C#N)nc4c3C(=O)NC4)ccc21` [Compound I-80, 2-(4-((3,3-dimethyl-2,3-dihydrobenzofuran-6-yl)amino)-5-oxo-6,7-dihydro-5H-pyrrolo[3,4-b]pyridin-2-yl)-3-fluorobenzonitrile] are no more than 10 nM and 10 to 100 nM.
The corresponding values for `O=C1NCc2nc(-c3c(F)cccc3F)cc(Nc3ccc(C(=O)N4CCOC5(CC5)C4)cc3)c21` [Compound I-50, 4-((4-(4-oxa-7-azaspiro[2.5]octane-7-carbonyl)phenyl)amino)-2-(2,6-difluorophenyl)-6,7-dihydro-5H-pyrrolo[3,4-b]pyridin-5-one] are no more than 10 nM and 10 to 100 nM.
Consider `O=C1NCc2nc(-c3c(F)cccc3F)cc(Nc3ccc4c(c3)OCO4)c21` [Compound I-68, 4-(benzo[d][1,3]dioxol-5-ylamino)-2-(2,6-difluorophenyl)-6,7-dihydro-5H-pyrrolo[3,4-b]pyridin-5-one], for which the figures for the Ki in assay [1] and in assay [2] were 10 to 100 nM and 100 to 1000 nM, respectively.
The corresponding values for `O=C1NCc2nc(-c3c(F)cccc3F)cc(Nc3ccc(N4CCC5(CC4)COC5)cn3)c21` [Compound I-24, 4-((5-(2-oxa-7-azaspiro[3.5]nonan-7-yl)pyridin-2-yl)amino)-2-(2,6-difluorophenyl)-6,7-dihydro-5H-pyrrolo[3,4-b]pyridin-5-one] are no more than 10 nM and no more than 10 nM.
The corresponding values for `CC(O)(c1ccc(Nc2cc(-c3c(F)cccc3F)nc3c2C(=O)NC3)cc1)C(F)(F)F` (stereo not shown) [Compound I-42, 2-(2,6-difluorophenyl)-4-((4-(1,1,1-trifluoro-2-hydroxypropan-2-yl)phenyl)amino)-6,7-dihydro-5H-pyrrolo[3,4-b]pyridin-5-one] are no more than 10 nM and 10 to 100 nM.
The corresponding values for `CC1(C)Cc2ccc(Nc3nc(-c4c(F)cccc4F)nc4c3C(=O)NC4)cc2N1` [Compound I-3, 2-(2,6-difluorophenyl)-4-((2,2-dimethylindolin-6-yl)amino)-6,7-dihydro-5H-pyrrolo[3,4-d]pyrimidin-5-one] are no more than 10 nM and 100 to 1000 nM.
Turning to `O=C1NCc2nc(-c3c(F)cccc3F)cc(Nc3ccc4c(n3)NCC4)c21` [Compound I-22, 2-(2,6-difluorophenyl)-4-((2,3-dihydro-1H-pyrrolo[2,3-b]pyridin-6-yl)amino)-6,7-dihydro-5H-pyrrolo[3,4-b]pyridin-5-one], the figures for the Ki in assay [1] and in assay [2] were no more than 10 nM and 10 to 100 nM, respectively.
The corresponding values for `O=C1NCc2nc(-c3c(F)cccc3F)cc(Nc3ccc4c(c3)CS(=O)(=O)C4)c21` [Compound I-86, 2-(2,6-difluorophenyl)-4-((2,2-dioxido-1,3-dihydro-benzo[c]thio-phen-5-yl)amino)-6,7-dihydro-5H-pyrrolo[3,4-b]pyridin-5-one] are no more than 10 nM and 10 to 100 nM.
The corresponding values for `N#Cc1cccc(F)c1-c1cc(Nc2ccc(N3CC4(CC4)C(O)C4(CC4)C3)cn2)c2c(n1)CNC2=O` [Compound I-87, 3-fluoro-2-(4-((5-(4-hydroxy-9-azadispiro[2.1.25.33]decan-9-yl)pyridin-2-yl)amino)-5-oxo-6,7-dihydro-5H-pyrrolo [3,4-b]pyridin-2-yl)benzonitrile] are no more than 10 nM and no more than 10 nM.
The corresponding values for `N#Cc1cccc(F)c1-c1cc(Nc2ccc(N3C[C@H]4COC[C@H]4C3)cn2)c2c(n1)CNC2=O` [Compound I-76, 3-fluoro-2-(5-oxo-4-((5-((3aR,6aS)-tetrahydro-1H-furo[3,4-c]pyrrol-5(3H)-yl)pyridin-2-yl)amino)-6,7-dihydro-5H-pyrrolo[3,4-b]pyridin-2-yl)benzonitrile] are no more than 10 nM and 10 to 100 nM.
`CN1C(=O)C(C)(c2ccc(Nc3nc(-c4c(F)cccc4F)nc4c3C(=O)NC4)cc2)Oc2ccccc21` (stereo not shown) [Compound I-39, 2-(4-((2-(2,6-difluorophenyl)-5-oxo-6,7-dihydro-5H-pyrrolo[3,4-d]pyrimidin-4-yl)amino)phenyl)-2,4-dimethyl-2H-benzo[b][1,4]oxazin-3(4H)-one]: the inhibition constant (Ki) in assay [1] was no more than 10 nM; in assay [2] it was 100 to 1000 nM.
The corresponding values for `CC(O)(c1ccc(Nc2cc(-c3c(F)cccc3F)nc3c2C(=O)NC3)nc1)C(F)(F)F` (stereo not shown) [Compound I-78, 2-(2,6-difluorophenyl)-4-((5-(1,1,1-trifluoro-2-hydroxypropan-2-yl)pyridin-2-yl)amino)-6,7-dihydro-5H-pyrrolo[3,4-b]pyridin-5-one] are no more than 10 nM and 10 to 100 nM.
The corresponding values for `O=C1NCc2nc(-c3c(F)cccc3F)cc(Nc3ccc(C(=O)N4CCOCC45CC5)cc3)c21` [Compound I-51, 4-((4-(7-oxa-4-azaspiro[2.5]octane-4-carbonyl)phenyl)amino)-2-(2,6-difluorophenyl)-6,7-dihydro-5H-pyrrolo[3,4-b]pyridin-5-one] are no more than 10 nM and no more than 10 nM.
The corresponding values for `COc1ccc(CNc2nc(-c3c(F)cccc3F)nc3c2C(=O)NC3)cc1` [Compound I-13, 2-(2,6-difluorophenyl)-4-((4-methoxybenzyl)-amino)-6,7-dihydro-5H-pyrrolo[3,4-d]pyrimidin-5-one] are 10 to 100 nM and 100 to 1000 nM.
`CN1C(=O)C(C)(c2ccc(Nc3nc(-c4c(F)cccc4F)nc4c3C(=O)NC4)cc2)c2ccccc21` (stereo not shown) [Compound I-48, 2-(2,6-difluorophenyl)-4-((4-(1,3-dimethyl-2-oxoindolin-3-yl)phenyl)amino)-6,7-dihydro-5H-pyrrolo[3,4-d]pyrimidin-5-one]: the Ki in assay [1] lay in the range of 10 to 100 nM; in assay [2] it was 100 to 1000 nM.
The corresponding values for `CN1CCc2cc(Nc3cc(-c4c(F)cccc4F)nc4c3C(=O)NC4)ccc2C1=O` [Compound I-64, 6-((2-(2,6-difluorophenyl)-5-oxo-6,7-dihydro-5H-pyrrolo[3,4-b]pyridin-4-yl)amino)-2-methyl-3,4-dihydroisoquinolin-1 (2H)-one] are no more than 10 nM and 10 to 100 nM.
The corresponding values for `O=C1NCc2nc(-c3c(F)cccc3F)nc(Nc3ccc(OC(CO)CO)cc3)c21` [Compound I-12, 2-(2,6-difluorophenyl)-4-((4-((1,3-dihydroxypropan-2-yl)oxy)phenyl)amino)-6,7-dihydro-5H-pyrrolo[3,4-d]pyrimidin-5-one] are no more than 10 nM and 100 to 1000 nM.
